Experimental data from PubChem BioAssay AID1963836 (Molecular Pharmacology Branch, DTP, NCI, 2024).

Tested on: 857933-349-R-J2-PDC complex spheroid viability
Test: Anticancer human tumor 857933-349-R-J2-PDC patient-derived colon adenocarcinoma cell line growth inhibition [POLQ]
Settings: for IC50: curve of first compound; for viability, T/C: stronger effect = lower value
How it was run: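 Growth inhibition in 3D: complex spheroids (tumor PDC, HUVEC, MSC) treated with POLQ inhibitor combinations; where Cmax unknown, highest tested concentration 10 microM, except SN-38 at 1 microM.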

[1] = second compound 0.0316 µM, first compound 0.0316 µM
[2] = second compound 0.0316 µM, first compound 0.1 µM
[3] = second compound 0.0316 µM, first compound 0.316 µM
[4] = second compound 0.0316 µM, first compound 1 µM
[5] = second compound 0.0316 µM, first compound 3.16 µM
[6] = second compound 0.0316 µM, first compound 10 µM
[7] = second compound 0.1 µM, first compound 0.0316 µM
[8] = second compound 0.1 µM, first compound 0.1 µM
[9] = second compound 0.1 µM, first compound 0.316 µM
[10] = second compound 0.1 µM, first compound 1 µM
[11] = second compound 0.1 µM, first compound 3.16 µM
[12] = second compound 0.1 µM, first compound 10 µM
[13] = second compound 0.316 µM, first compound 0.0316 µM
[14] = second compound 0.316 µM, first compound 0.1 µM
[15] = second compound 0.316 µM, first compound 0.316 µM
[16] = second compound 0.316 µM, first compound 1 µM
[17] = second compound 0.316 µM, first compound 3.16 µM
[18] = second compound 0.316 µM, first compound 10 µM
[19] = second compound 1 µM, first compound 0.0316 µM
[20] = second compound 1 µM, first compound 0.1 µM
[21] = second compound 1 µM, first compound 0.316 µM
[22] = second compound 1 µM, first compound 1 µM
[23] = second compound 1 µM, first compound 3.16 µM
[24] = second compound 1 µM, first compound 10 µM
[25] = second compound 3.16 µM, first compound 0.0316 µM
[26] = second compound 3.16 µM, first compound 0.1 µM
[27] = second compound 3.16 µM, first compound 0.316 µM
[28] = second compound 3.16 µM, first compound 1 µM
[29] = second compound 3.16 µM, first compound 3.16 µM
[30] = second compound 3.16 µM, first compound 10 µM
[31] = second compound 10 µM, first compound 0.0316 µM
[32] = second compound 10 µM, first compound 0.1 µM
[33] = second compound 10 µM, first compound 0.316 µM
[34] = second compound 10 µM, first compound 1 µM
[35] = second compound 10 µM, first compound 3.16 µM
[36] = second compound 10 µM, first compound 10 µM
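Note: spheroids exposed to compounds for seven days before readout.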

Structure (SMILES): C=CC(=O)N1CCN(c2nc(=O)n(-c3c(C)ccnc3C(C)C)c3nc(-c4c(O)cccc4F)c(F)cc23)C(C)C1 (stereo unspecified) + Cc1cccc(N(C)C(=O)C2C(O)CCN2c2nc(C)cc(C(F)(F)F)c2C#N)c1
- IC50 (second compound 0.0316 µM): > 10 µM
- IC50 (second compound 0.1 µM): > 10 µM
- IC50 (second compound 0.316 µM): > 10 µM
- IC50 (second compound 1 µM): > 10 µM
- IC50 (second compound 3.16 µM): > 10 µM
- IC50 (second compound 10 µM): > 10 µM
- viability, T/C [1]: 101%
- viability, T/C [2]: 104%
- viability, T/C [3]: 94.8%
- viability, T/C [4]: 113%
- viability, T/C [5]: 97.2%
- viability, T/C [6]: 80.5%
- viability, T/C [7]: 114%
- viability, T/C [8]: 106%
- viability, T/C [9]: 73%
- viability, T/C [10]: 112%
- viability, T/C [11]: 98.9%
- viability, T/C [12]: 85.3%
- viability, T/C [13]: 91.1%
- viability, T/C [14]: 100%
- viability, T/C [15]: 109%
- viability, T/C [16]: 87.4%
- viability, T/C [17]: 84.4%
- viability, T/C [18]: 70%
- viability, T/C [19]: 95.3%
- viability, T/C [20]: 95.2%
- viability, T/C [21]: 89.3%
- viability, T/C [22]: 101%
- viability, T/C [23]: 113%
- viability, T/C [24]: 97.9%
- viability, T/C [25]: 76.5%
- viability, T/C [26]: 106%
- viability, T/C [27]: 109%
- viability, T/C [28]: 84%
- viability, T/C [29]: 99.8%
- viability, T/C [30]: 95.2%
- viability, T/C [31]: 88.7%
- viability, T/C [32]: 84.2%
- viability, T/C [33]: 101%
- viability, T/C [34]: 85.9%
- viability, T/C [35]: 91.8%
- viability, T/C [36]: 77.7%

Structure (SMILES): CC(C)n1c(=O)n(C)c2cnc3cc(F)c(-c4ccc(OCCCN5CCCCC5)nc4)cc3c21 + Cc1cccc(N(C)C(=O)C2C(O)CCN2c2nc(C)cc(C(F)(F)F)c2C#N)c1
- IC50 (second compound 0.0316 µM): > 10 µM
- IC50 (second compound 0.1 µM): > 10 µM
- IC50 (second compound 0.316 µM): > 10 µM
- IC50 (second compound 1 µM): > 10 µM
- IC50 (second compound 3.16 µM): > 10 µM
- IC50 (second compound 10 µM): > 10 µM
- viability, T/C [1]: 106%
- viability, T/C [2]: 78.1%
- viability, T/C [3]: 90.2%
- viability, T/C [4]: 113%
- viability, T/C [5]: 107%
- viability, T/C [6]: 69.8%
- viability, T/C [7]: 97.7%
- viability, T/C [8]: 107%
- viability, T/C [9]: 98.9%
- viability, T/C [10]: 105%
- viability, T/C [11]: 87%
- viability, T/C [12]: 68.5%
- viability, T/C [13]: 97.2%
- viability, T/C [14]: 94.3%
- viability, T/C [15]: 104%
- viability, T/C [16]: 94.9%
- viability, T/C [17]: 105%
- viability, T/C [18]: 88%
- viability, T/C [19]: 80.7%
- viability, T/C [20]: 73.8%
- viability, T/C [21]: 92.6%
- viability, T/C [22]: 110%
- viability, T/C [23]: 114%
- viability, T/C [24]: 66.9%
- viability, T/C [25]: 83.6%
- viability, T/C [26]: 89.2%
- viability, T/C [27]: 116%
- viability, T/C [28]: 79.3%
- viability, T/C [29]: 102%
- viability, T/C [30]: 75%
- viability, T/C [31]: 73.2%
- viability, T/C [32]: 65.9%
- viability, T/C [33]: 87.9%
- viability, T/C [34]: 97.3%
- viability, T/C [35]: 106%
- viability, T/C [36]: 64.5%

Structure (SMILES): CC1COCCN1c1cc(-c2ccnn2C)c2ccnc(-c3ccn[nH]3)c2n1 (stereo unspecified) + Cc1cccc(N(C)C(=O)C2C(O)CCN2c2nc(C)cc(C(F)(F)F)c2C#N)c1
- IC50 (second compound 0.0316 µM): 0.186 µM
- IC50 (second compound 0.1 µM): 0.212 µM
- IC50 (second compound 0.316 µM): 0.235 µM
- IC50 (second compound 1 µM): 0.181 µM
- IC50 (second compound 3.16 µM): 0.153 µM
- IC50 (second compound 10 µM): 0.0925 µM
- viability, T/C [1]: 58.7%
- viability, T/C [2]: 55.3%
- viability, T/C [3]: 44%
- viability, T/C [4]: 29.7%
- viability, T/C [5]: 32.7%
- viability, T/C [6]: 36.6%
- viability, T/C [7]: 71.6%
- viability, T/C [8]: 73.2%
- viability, T/C [9]: 38.1%
- viability, T/C [10]: 34.2%
- viability, T/C [11]: 42.9%
- viability, T/C [12]: 37.2%
- viability, T/C [13]: 73.2%
- viability, T/C [14]: 68.3%
- viability, T/C [15]: 43.9%
- viability, T/C [16]: 31.3%
- viability, T/C [17]: 49.6%
- viability, T/C [18]: 45.4%
- viability, T/C [19]: 58.9%
- viability, T/C [20]: 63.4%
- viability, T/C [21]: 37.6%
- viability, T/C [22]: 34.4%
- viability, T/C [23]: 42.6%
- viability, T/C [24]: 43.4%
- viability, T/C [25]: 65.9%
- viability, T/C [26]: 55.4%
- viability, T/C [27]: 44.6%
- viability, T/C [28]: 38.3%
- viability, T/C [29]: 43%
- viability, T/C [30]: 45.6%
- viability, T/C [31]: 49.8%
- viability, T/C [32]: 59.9%
- viability, T/C [33]: 40%
- viability, T/C [34]: 37.6%
- viability, T/C [35]: 47.5%
- viability, T/C [36]: 34.9%
